Test results reported in the supplement of paper PMC10307832.

Legend:
Assay in all cases: relative viability (nuclei count vs DMSO), 5 days (fraction); higher = more cells survive
[1] = tested on: NCI-H727
Procedure, shortened: (§1)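 Nuclei were stained with Hoechst during a one-step fixation (final 0.05% Triton X-100, 1% formaldehyde, 1 ug/ml Hoechst) carried out 5 days after dosing, then counted on 4× images. The cells, lung cancer lines in 1536-well plates, had been dosed by pin tool the day after seeding with one drug alone or a fixed anchor-drug dose plus five library-drug doses (not always all listed) in √10 steps. Relative viability is the nuclei count in treated wells divided by that in vehicle wells, and each value is the median of duplicate plates.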

[2] = tested on: NCI-H23
Procedure, shortened: as §1

[3] = tested on: NCI-H1437
Procedure, shortened: as §1

[4] = tested on: NCI-H1975
Procedure, shortened: as §1

[5] = tested on: NCI-H1915
Procedure, shortened: as §1

[6] = tested on: A-427
Procedure, shortened: as §1

[7] = tested on: COR-L 105
Procedure, shortened: as §1

[8] = tested on: NCI-H1792
Procedure, shortened: as §1

[9] = tested on: NCI-H460
Procedure, shortened: as §1

[10] = tested on: NCI-H2228
Procedure, shortened: as §1

[11] = tested on: HARA
Procedure, shortened: as §1

[12] = tested on: LCLC-103H
Procedure, shortened: as §1

[13] = tested on: EMC-BAC-2
Procedure, shortened: as §1

[14] = tested on: NCI-H1355
Procedure, shortened: as §1

[15] = tested on: CAL-12T
Procedure, shortened: as §1

[16] = tested on: NCI-H1755
Procedure, shortened: as §1

[17] = tested on: HCC-366
Procedure, shortened: as §1

[18] = tested on: NCI-H1395
Procedure, shortened: as §1

[19] = tested on: SW 1573
Procedure, shortened: as §1

[20] = tested on: HCC-827
Procedure, shortened: as §1

[21] = tested on: SK-LU-1
Procedure, shortened: as §1

[22] = tested on: NCI-H2009
Procedure, shortened: as §1

[23] = tested on: HOP-62
Procedure, shortened: as §1

O=C(O)c1ccc(-c2c[nH]c3ncc(-c4ccccc4)cc23)cc1C1CCCC1 + C[C@]1(O)C[C@@H](c2nc(-c3ccc4ccc(-c5ccccc5)nc4c3)c3c(N)nccn32)C1 [Linsitinib] (partner 1 µM)
relative viability ([1]; first compound 0.04 µM): 0.381 | relative viability ([1]; first compound 0.1265 µM): 0.361 | relative viability ([1]; first compound 0.4 µM): 0.243 | relative viability ([1]; first compound 1.265 µM): 0.294 | relative viability ([2]; first compound 0.04 µM): 0.545 | relative viability ([2]; first compound 0.1265 µM): 0.617 | relative viability ([2]; first compound 0.4 µM): 0.559 | relative viability ([2]; first compound 1.265 µM): 0.451 | relative viability ([3]; first compound 0.04 µM): 1.03 | relative viability ([3]; first compound 0.1265 µM): 1.09 | relative viability ([3]; first compound 0.4 µM): 0.969 | relative viability ([3]; first compound 1.265 µM): 0.55 | relative viability ([4]; first compound 0.04 µM): 0.903 | relative viability ([4]; first compound 0.1265 µM): 0.935 | relative viability ([4]; first compound 0.4 µM): 0.951 | relative viability ([4]; first compound 1.265 µM): 1 | relative viability ([5]; first compound 0.04 µM): 1.06 | relative viability ([5]; first compound 0.1265 µM): 1.1 | relative viability ([5]; first compound 0.4 µM): 0.946 | relative viability ([5]; first compound 1.265 µM): 0.799 | relative viability ([6]; first compound 0.04 µM): 1.14 | relative viability ([6]; first compound 0.1265 µM): 1.1 | relative viability ([6]; first compound 0.4 µM): 1.05 | relative viability ([6]; first compound 1.265 µM): 0.865 | relative viability ([7]; first compound 0.04 µM): 1.07 | relative viability ([7]; first compound 0.1265 µM): 0.919 | relative viability ([7]; first compound 0.4 µM): 1 | relative viability ([7]; first compound 1.265 µM): 0.92 | relative viability ([8]; first compound 0.04 µM): 0.577 | relative viability ([8]; first compound 0.1265 µM): 0.727 | relative viability ([8]; first compound 0.4 µM): 0.56 | relative viability ([8]; first compound 1.265 µM): 0.558 | relative viability ([9]; first compound 0.04 µM): 0.783 | relative viability ([9]; first compound 0.1265 µM): 0.989 | relative viability ([9]; first compound 0.4 µM): 0.753 | relative viability ([9]; first compound 1.265 µM): 0.662 | relative viability ([10]; first compound 0.04 µM): 0.726 | relative viability ([10]; first compound 0.1265 µM): 0.729 | relative viability ([10]; first compound 0.4 µM): 0.813 | relative viability ([10]; first compound 1.265 µM): 0.589 | relative viability ([11]; first compound 0.04 µM): 0.905 | relative viability ([11]; first compound 0.1265 µM): 0.983 | relative viability ([11]; first compound 0.4 µM): 0.994 | relative viability ([11]; first compound 1.265 µM): 0.748 | relative viability ([12]; first compound 0.04 µM): 1.04 | relative viability ([12]; first compound 0.1265 µM): 1.04 | relative viability ([12]; first compound 0.4 µM): 1.17 | relative viability ([12]; first compound 1.265 µM): 1.08 | relative viability ([13]; first compound 0.04 µM): 0.823 | relative viability ([13]; first compound 0.1265 µM): 0.866 | relative viability ([13]; first compound 0.4 µM): 0.819 | relative viability ([13]; first compound 1.265 µM): 0.79 | relative viability ([14]; first compound 0.04 µM): 0.848 | relative viability ([14]; first compound 0.1265 µM): 0.79 | relative viability ([14]; first compound 0.4 µM): 0.887 | relative viability ([14]; first compound 1.265 µM): 0.633 | relative viability ([15]; first compound 0.04 µM): 0.799 | relative viability ([15]; first compound 0.1265 µM): 0.834 | relative viability ([15]; first compound 0.4 µM): 0.963 | relative viability ([15]; first compound 1.265 µM): 0.6 | relative viability ([16]; first compound 0.04 µM): 0.96 | relative viability ([16]; first compound 0.1265 µM): 1.01 | relative viability ([16]; first compound 0.4 µM): 1.02 | relative viability ([16]; first compound 1.265 µM): 0.961 | relative viability ([17]; first compound 0.04 µM): 0.657 | relative viability ([17]; first compound 0.1265 µM): 0.759 | relative viability ([17]; first compound 0.4 µM): 0.882 | relative viability ([17]; first compound 1.265 µM): 0.573 | relative viability ([18]; first compound 0.04 µM): 1.11 | relative viability ([18]; first compound 0.1265 µM): 1.06 | relative viability ([18]; first compound 0.4 µM): 1.08 | relative viability ([18]; first compound 1.265 µM): 0.796 | relative viability ([19]; first compound 0.04 µM): 0.753 | relative viability ([19]; first compound 0.1265 µM): 0.763 | relative viability ([19]; first compound 0.4 µM): 0.882 | relative viability ([19]; first compound 1.265 µM): 0.569 | relative viability ([20]; first compound 0.04 µM): 0.966 | relative viability ([20]; first compound 0.1265 µM): 0.976 | relative viability ([20]; first compound 0.4 µM): 0.884 | relative viability ([20]; first compound 1.265 µM): 0.702 | relative viability ([21]; first compound 0.04 µM): 1.06 | relative viability ([21]; first compound 0.1265 µM): 1 | relative viability ([21]; first compound 0.4 µM): 0.943 | relative viability ([21]; first compound 1.265 µM): 0.851 | relative viability ([22]; first compound 0.04 µM): 1.23 | relative viability ([22]; first compound 0.1265 µM): 1.21 | relative viability ([22]; first compound 0.4 µM): 1.15 | relative viability ([22]; first compound 1.265 µM): 1.08 | relative viability ([23]; first compound 0.04 µM): 1.1 | relative viability ([23]; first compound 0.1265 µM): 1.03 | relative viability ([23]; first compound 0.4 µM): 1.04 | relative viability ([23]; first compound 1.265 µM): 0.794
